pIC50: −log10 of the molar value. Like-named read-outs stand apart in the source and are kept apart here.
Experiments:
[1] = target: mouse Smoothened receptor (Mus musculus, UniProt P56726); test: Smo binding assay, displacement of radio-labeled smoothened agonist, filter binding format (mouse); details: displacement of small molecule agonist of Smoothened, read-out: Mouse Smo bdg., IC50
Description: A Smo binding assay was developed using radio-labeled smoothened agonist for compound competition.

Gli-luciferase activity = test: Reporter gene assay (RGA) in TMHh12 cells, antagonism of Gli-luciferase activity in the presence of a Smo agonist; assay type: cell-based
Protocol: Activity of the compounds was evaluated using a reporter gene assay (RGA) in TMHh12 cells.

[2] = 25 nM small molecule Smo agonist, read-out: RGA (25 nM Smo agonist) IC50
[3] = read-out: RGA (1 nM Smo agonist) IC50, 1 nM small molecule Smo agonist

Chain of mouse Smoothened receptor (P56726 33-793): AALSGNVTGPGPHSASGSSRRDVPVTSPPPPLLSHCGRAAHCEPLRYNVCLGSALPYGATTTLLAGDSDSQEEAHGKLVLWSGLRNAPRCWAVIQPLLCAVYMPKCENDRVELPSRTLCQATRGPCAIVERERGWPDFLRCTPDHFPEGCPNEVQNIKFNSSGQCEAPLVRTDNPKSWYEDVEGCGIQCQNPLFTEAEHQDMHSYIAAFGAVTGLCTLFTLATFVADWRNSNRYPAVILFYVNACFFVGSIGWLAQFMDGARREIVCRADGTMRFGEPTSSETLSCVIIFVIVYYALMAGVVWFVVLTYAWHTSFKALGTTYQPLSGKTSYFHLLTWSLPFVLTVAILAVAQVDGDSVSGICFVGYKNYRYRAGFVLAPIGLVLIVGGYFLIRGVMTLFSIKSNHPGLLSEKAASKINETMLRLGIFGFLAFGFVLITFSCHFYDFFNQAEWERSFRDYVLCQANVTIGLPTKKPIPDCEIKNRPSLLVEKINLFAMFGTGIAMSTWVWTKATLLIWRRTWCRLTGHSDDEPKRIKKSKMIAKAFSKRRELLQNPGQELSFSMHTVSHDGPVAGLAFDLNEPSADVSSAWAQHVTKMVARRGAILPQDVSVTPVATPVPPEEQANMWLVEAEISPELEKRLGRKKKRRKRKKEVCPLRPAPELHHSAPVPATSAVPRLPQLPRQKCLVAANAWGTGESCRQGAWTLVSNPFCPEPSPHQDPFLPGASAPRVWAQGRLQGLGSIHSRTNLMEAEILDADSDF

| Structure (SMILES) | pIC50 [1] | pIC50 (Gli-luciferase activity; [2]) | pIC50 (Gli-luciferase activity; [3]) |
| --- | --- | --- | --- |
| CCCc1cnc(N2CCN(c3nnc(Cc4ccccc4)c4ccccc34)CC2)nc1 [Example 42] | > 7.00 | 6.00 to 7.00 | > 7.00 |
| OCc1ccc(N2CCN(c3nnc(Cc4ccccc4)c4ccccc34)CC2)nc1 [Example 158] | 6.00 to 7.00 | 5.00 to 6.00 | 6.00 to 7.00 |
| c1ccc2c(N3CCN(c4cnccn4)CC3)nnc(Cc3ccncc3)c2c1 [Example 20] | 5.00 to 6.00 | – | 5.00 to 6.00 |
| CC(=O)c1cnc(N2CCN(c3nnc(Cc4ccccc4)c4ccccc34)CC2)cn1 [Example 153] | > 7.00 | 6.00 to 7.00 | > 7.00 |
| CNC(=O)NCc1ccc(N2CCN(c3nnc(Cc4ccccc4)c4ccccc34)CC2)nc1 [Example 206] | 6.00 to 7.00 | 6.00 to 7.00 | > 7.00 |
| Cc1cc(Cc2nnc(N3CCN(c4ccccc4)CC3)c3ccccc23)ccn1 [Example 11] | – | 4.40 to 5.00 | 5.00 to 6.00 |
| c1ccc(Cc2nnc(N3CCC(c4ccccc4)CC3)c3ccccc23)cc1 [Example 12] | 4.40 to 5.00 | 5.00 to 6.00 | 5.00 to 6.00 |
| CCCc1cnc(N2CCCN(c3nnc(Cc4ccccc4)c4ccccc34)CC2)nc1 [Example 44] | > 7.00 | 6.00 to 7.00 | > 7.00 |
| FC(F)(F)c1ccc(N2CCCN(c3nnc(Cc4ccccc4)c4ccccc34)CC2)nc1 [Example 3] | > 7.00 | 6.00 to 7.00 | 6.00 to 7.00 |
| CN(C)CCNC(=O)c1ccc(N2CCN(c3nnc(Cc4ccccc4)c4ccccc34)CC2)nc1 [Example 54h] | – | 6.00 to 7.00 | 6.00 to 7.00 |
| O=C(NCCO)c1ccc(N2CCN(c3nnc(Cc4ccccc4)c4ccccc34)CC2)nc1 [Example 54e] | 6.00 to 7.00 | 6.00 to 7.00 | > 7.00 |
| O=C(c1ccc(N2CCN(c3nnc(Cc4ccccc4)c4ccccc34)CC2)nc1)N1CCSC1 [Example 54p] | > 7.00 | 6.00 to 7.00 | > 7.00 |
| Cc1cc(Cc2nnc(N3CCN(c4cccc5ccccc45)CC3)c3ccccc23)ccn1 [Example 35] | – | 5.00 to 6.00 | 5.00 to 6.00 |
| c1ccc(Cc2nnc(N3CCN(c4ccc5ccccc5n4)CC3)c3ccccc23)cc1 [Example 18] | > 7.00 | 6.00 to 7.00 | > 7.00 |
| Cc1ccc(N2CCN(c3nnc(Cc4ccccc4)c4ccccc34)CC2C)cc1 (stereo not drawn) [Example 27] | 5.00 to 6.00 | 5.00 to 6.00 | 6.00 to 7.00 |
| CS(=O)(=O)NCc1ccc(N2CCN(c3nnc(Cc4ccccc4)c4ccccc34)CC2)nc1 [Example 205] | > 7.00 | 6.00 to 7.00 | 6.00 to 7.00 |
| Cc1ccc(N2CCN(c3nnc(Cc4ccnc(C)c4)c4ccccc34)CC2C)cc1 (stereo not drawn) [Example 29] | 4.40 to 5.00 | 4.40 to 5.00 | 5.00 to 6.00 |
| Cc1ccc(N2CCN(c3nnc(Cc4ccncc4)c4ccccc34)CC2C)cc1 (stereo not drawn) [Example 28] | 5.00 to 6.00 | 5.00 to 6.00 | 5.00 to 6.00 |
| O=C(NCc1ccccc1)c1ccc(N2CCN(c3nnc(Cc4ccccc4)c4ccccc34)CC2)nc1 [Example 54l] | > 7.00 | 6.00 to 7.00 | > 7.00 |
| COCCNC(=O)c1ccc(N2CCN(c3nnc(Cc4ccccc4)c4ccccc34)CC2)nc1 [Example 54f] | 6.00 to 7.00 | 6.00 to 7.00 | 6.00 to 7.00 |
| CC(=O)Nc1cnc(N2CCN(c3nnc(Cc4ccccc4)c4ccccc34)CC2)nc1 [Example 237, N-{2-[4-(4-Benzyl-phthalazin-1-yl)-piperazin-1-yl]-pyrimidin-5-yl}-acetamide] | 6.00 to 7.00 | 6.00 to 7.00 | 6.00 to 7.00 |
| CC(=O)NCc1ccc(N2CCN(c3nnc(Cc4ccccc4)c4ccccc34)CC2)cc1 [Example 75] | 6.00 to 7.00 | 5.00 to 6.00 | 6.00 to 7.00 |
| NCc1ccc(N2CCN(c3nnc(Cc4ccccc4)c4ccccc34)CC2)cc1 [Example 73] | 6.00 to 7.00 | 5.00 to 6.00 | 6.00 to 7.00 |
| c1ccc(Cc2nnc(N3CCN(c4ccncc4)CC3)c3ccccc23)cc1 [Example 37] | 5.00 to 6.00 | 5.00 to 6.00 | 6.00 to 7.00 |
| c1ccc(Cc2nnc(N3CCCN(c4ncccn4)CC3)c3ccccc23)cc1 [Example 40] | 6.00 to 7.00 | 6.00 to 7.00 | > 7.00 |

| Structure (SMILES) | pIC50 [1] | pIC50 (Gli-luciferase activity; [2]) | pIC50 (Gli-luciferase activity; [3]) |
| --- | --- | --- | --- |
| c1ccc(Cc2nnc(N3CCN(c4ccccn4)CC3)c3ccccc23)cc1 [Example 24] | 6.00 to 7.00 | 5.00 to 6.00 | 6.00 to 7.00 |
| N#Cc1ccc(N2CCN(c3cnc(Cc4cccc(C#N)c4)c4ccccc34)CC2)nc1 [Example 80] | – | 4.40 to 5.00 | 5.00 to 6.00 |
| c1ccc2cc(N3CCN(c4nnc(Cc5ccncc5)c5ccccc45)CC3)ccc2c1 [Example 32] | 6.00 to 7.00 | 5.00 to 6.00 | 6.00 to 7.00 |
| Clc1ccc(N2CCN(c3nnc(Cc4ccccc4)c4ccccc34)CC2)cc1Cl [Example 30] | 5.00 to 6.00 | 5.00 to 6.00 | 6.00 to 7.00 |
| Cc1cc(Cc2nnc(N3CCN(c4ccccn4)CC3)c3ccccc23)ccn1 [Example 22] | – | 4.40 to 5.00 | 5.00 to 6.00 |
| FC(F)(F)c1cnc(N2CCCN(c3nnc(Cc4ccccc4)c4ccccc34)CC2)c(Cl)c1 [Example 17] | 6.00 to 7.00 | 5.00 to 6.00 | > 7.00 |
| NCc1ccc(N2CCN(c3nnc(Cc4ccncc4)c4ccccc34)CC2)cc1 [Example 72] | – | 4.40 to 5.00 | 5.00 to 6.00 |
| Cc1ccnc(N2CCCN(c3nnc(Cc4ccccc4)c4ccccc34)CC2)n1 [Example 41] | 6.00 to 7.00 | 6.00 to 7.00 | > 7.00 |
| CCN1CCOc2cc3c(cc21)Oc1cc2c(cc1=N3)OCC[N+]=2CCCCCC(=O)NCc1ccc(N2CCN(c3nnc(Cc4ccccc4)c4ccccc34)CC2)nc1 [Example 74] | – | 6.00 to 7.00 | > 7.00 |
| c1ccc(Cc2nnc(N3CCN(c4ccc5ccccc5c4)CC3)c3ccccc23)cc1 [Example 31] | 6.00 to 7.00 | 5.00 to 6.00 | 6.00 to 7.00 |
| CC(C)(C)c1ccc(N2CCN(c3nnc(Cc4cc(Cl)cc(Cl)c4)c4ccccc34)CC2)nc1 [Example 9] | > 7.00 | 6.00 to 7.00 | > 7.00 |
| O=C(NCC1CCCCC1)c1ccc(N2CCN(c3nnc(Cc4ccccc4)c4ccccc34)CC2)nc1 [Example 54m] | > 7.00 | 6.00 to 7.00 | > 7.00 |
| CC(=O)NCc1ccc(N2CCN(c3nnc(Cc4ccncc4)c4ccccc34)CC2)cc1 [Example 76] | 4.40 to 5.00 | 4.40 to 5.00 | 5.00 to 6.00 |
| Cc1ccccc1N1CCN(c2nnc(Cc3ccccc3)c3ccccc23)CC1 [Example 38] | 4.40 to 5.00 | 5.00 to 6.00 | 5.00 to 6.00 |
| CC(=O)Nc1ccc(N2CCN(c3nnc(Cc4ccccc4)c4ccccc34)CC2)nc1 [Example 236] | 6.00 to 7.00 | 6.00 to 7.00 | 6.00 to 7.00 |
| CCc1cnc(N2CCN(c3nnc(Cc4ccccc4)c4ccccc34)CC2)nc1 [Example 43] | > 7.00 | > 7.00 | > 7.00 |
| Cc1cc(N2CCN(c3ccc(C#N)cn3)CC2)nnc1Cc1ccc(Cl)cc1 [Example 93] | > 7.00 | – | 6.00 to 7.00 |
| c1ccc(Cc2nnc(N3CCN(c4cnccn4)CC3)c3ccccc23)cc1 [Example 21] | 6.00 to 7.00 | 5.00 to 6.00 | 6.00 to 7.00 |
| c1ccc(Cc2nnc(N3CCN(c4ncccn4)CC3)c3ccccc23)cc1 [Example 25] | 6.00 to 7.00 | 5.00 to 6.00 | > 7.00 |
| N#Cc1ccc(N2CCN(c3nnc(Cc4ccccc4)c4ccccc34)CC2)nc1 [Example 4] | 5.00 to 6.00 | – | – |
| COC(=O)CC(SCC(=O)NCc1ccc(N2CCN(c3nnc(Cc4ccccc4)c4ccccc34)CC2)nc1)C(=O)OC (stereo not drawn) [Example 215] | – | 5.00 to 6.00 | 6.00 to 7.00 |
| Cc1cc(Cc2nnc(N3CCC(c4ccccc4)CC3)c3ccccc23)ccn1 [Example 14] | – | 5.00 to 6.00 | 5.00 to 6.00 |
| c1ccc(N2CCN(c3nnc(Cc4ccncc4)c4ccccc34)CC2)cc1 [Example 6] | – | 4.40 to 5.00 | 5.00 to 6.00 |
| NCc1ccc(N2CCN(c3nnc(Cc4ccccc4)c4ccccc34)CC2)nc1 [Example 71] | – | 6.00 to 7.00 | > 7.00 |

Source: US8536168B2 (Novartis AG, priority 2007, dated 2013)
